Data on one compound can be found in US20260248767A1, “METHODS FOR INDUCING FERROPTOSIS IN CANCER” (Board of Regents, The University of Texas System, priority 2023, published 2026).

For one assay, the system named is oxidative PPP. Description: Oxidative PPP flux calculation (1,2-[13C2] glucose). The class given is cell-based. The following applies: sulfite vs vehicle treated cells. The method, then: Cells were seeded in six-well plates and incubated overnight, then given 2 ml of fresh medium containing 25 mM 1,2-[13C2] glucose. Aliquots of this medium were frozen and stored for analysis to determine the initial glucose concentration, and cells in replicate plates were trypsinized and counted to determine initial cell numbers. After 24 h, the spent medium was extracted as above and frozen until analysis, and the cells were trypsinized and counted to determine the final cell numbers.
For lactate isotopomer analysis the samples were analyzed directly. The relative quantities of M0, M1, M2 and M3 lactate were corrected for natural carbon-13 abundance using the IsoCorrectoR software package (Heinrich, P. et al. Sci Rep 8, 17910, doi: 10.1038/s41598-018-36293-4 (2018)). and the oxidative PPP-shunting ratio was calculated by taking the ratio M1/(M1+M2) (Badur, M. G. et al. Cell Rep 25, 1680, doi: 10.1016/j.celrep.2018.10.099 (2018)); since there is no difference in growth rates between the vehicle and sulfite treated cell lines, it is assumed that the biosynthetic demand for ribose-5-phosphate or any other PPP intermediate is the same in each case, so any increase in this ratio reflects an increase in NADPH production by the oxidative PPP.

For assay [1], the system named is HT-1080, 786-O, U87, T98G, RCC4, H1299, A549, Hela and Hs578T. Description: Cell death assay (PI flow cytometry), panel of cancer cell lines. The class given is cell-based, human. On the procedure: All cell lines used in this study were free of mycoplasma contamination (per testing done by the vendor). All the cells were cultured in a 37° C. incubator in a 5% CO2 atmosphere. H1299 cells were cultured in RPMI-1640 medium supplemented with 10% fetal bovine serum and 10,000 U/mL penicillin-streptomycin. HT-1080, 786-O, U87, T98G, RCC4, A549, Hela and Hs578T cells were cultured in Dulbecco modified Eagle medium (DMEM) supplemented with 10% fetal bovine serum and 10,000 U/mL of penicillin-streptomycin.
After treatment, cells were trypsinized and collected. […] All experiments were performed in triplicates.
On the technique in general: In flow cytometry, cells or beads pass a laser one at a time.

The subject of the next assay is cells. Briefly: Metabolomic analysis of vehicle or sulfite treated cells. It is filed as cell-based. The method, then:
Metabolomic analysis was performed in vehicle or sulfite treated cells. An increase in the levels of 6-phospho-D-Gluconate (FIG. 3C), ribose phosphate (FIG. 3D), D-Glyceraldehyde 3-phosphate (FIG. 3E), D-sedoheptulose-1/7 phosphate (FIG. 3F), NDAP+/NADPH ratio (FIG. 3G), oxPPP shunting (FIG. 3H) were observed.
Metabolomic analysis was performed as previously described (Liu, X. et al. Nat Cell Biol 22, 476-486, doi: 10.1038/s41556-020-0496-x (2020)). Cells were seeded on 35-mm culture plates at a density sufficient to ensure approximately 70-80% confluence at the time of extraction. Metabolites were extracted at the indicated time points for subsequent analyses. Metabolites were extracted by rapidly aspirating the culture medium and then adding 500 μl of an 80% methanol: 20% water mixture at dry ice temperature. The plates were incubated on dry ice for 15 min before the cells were scraped into pre-chilled Eppendorf tubes. The cell debris was pelleted by centrifugation at 13,000 ref for 5 min at 4° C. and the supernatant was transferred into a fresh tube and stored on dry ice until analysis. Just before analysis, 500 μl of extract was dried under nitrogen gas flow and then resuspended in 100 μl water.
The complete platform consists of an Accela 1250 HPLC system, Accela Open Autosampler, MayLab Mistraswitch column oven and Exactive orbitrap mass spectrometer, controlled by the Xcalibur 3.0.63 software package. Chromatography was performed with a Phenomenex Synergi Hydro-RP column (100×2 mm, 2.5 μm particle size). Solvent A is 10 mM tributylamine and 15 mm acetic acid in water; Solvent B is methanol. The gradient is: 0 min, 0% B; 2.5 min, 0% B; 5 min, 20% B; 7.5 min, 20% B; 13 min, 55% B; 15.5 min, 95% B; 18.5 min, 95% B; 19 min, 0% B; 25 min, 0% B. The injection volume was 10 μl. The column temperature was set to 40° C., and the flow rate was 200 μl/min. The Exactive was operated in negative ionization mode with an electrospray ionization interface. The instrument parameters are as follows: sheath gas flow rate 30 (arbitrary units), aux gas flow rate 10 (arbitrary units), sweep gas flow rate 3 (arbitrary units), spray voltage 3 kV, capillary temperature 325° C., capillary voltage −25 V, tube lens voltage −50 V. The scan range was set to 80-1,000 m/z, with a maximum inject time of 250 ms, resolution of 100,000 at 1 Hz, and AGC (automatic gain control) target 1×10^6. The data were analyzed using the MAVEN software suite with signal intensity determined as the Peak Area (Top). For metabolic labelling experiments, the data were corrected to account for the natural abundance of nitrogen-15 using IsoCorrectoR (Heinrich, P. et al. Sci Rep 8, 17910, doi: 10.1038/s41598-018-36293-4 (2018)).

The test system of another assay is SHMT2. Briefly: Protein level after sulfite treatment (Western blotting), SHMT2. The class given is cell-based. The following applies: following treatment with sulfite. On the procedure: To test if sulfite changed mitochondrial protein levels, SHMT2 and MTHFD2 protein levels were measured following treatment with sulfite. No changes in protein levels were observed (FIG. 9).
Briefly, cells were lysed in NP-40 lysis buffer (50 mM Tris [pH 7.4], 250 mM NaCl, 5 mM EDTA, 50 mM NaF, 1 mM Na3VO4, 1% Nonidet P40) containing complete mini protease inhibitors (Roche). The protein concentration of lysates was quantified using BCA Protein Assay Kit from Life Technologies (#23227). 20 μg of total protein was loaded into SDS-PAGE gel and transferred to a PVDF membrane (Bio-Rad) using standard techniques. The primary antibodies and concentrations used for Western blotting were Vinculin (1:1000, Sigma-Aldrich, #V4505), SUOX (1:1000, Abcam, #ab129094), SHMT2 (1:1000, Sigma-Aldrich, #HPA-020549), IDH1 (1:1000, Proteintech, #12332-1-AP), ME1 (1:1000,), MTHFD2 (1:1000, Abcam, #ab56772), Flag (1:1000, Sigma, #F1804), GPX4 (1:1,000, R&D, #MAB5457), COQ2 (1:1,000, Santa Cruz, sc-517107) and FSP1 (1:1000, Proteintech, #20886-1-AP).
(In western blotting, separated proteins are transferred to a membrane and probed.)

Another assay relates to NADP+/NADPH. Briefly: NADP+ and NADPH measurement. The class given is cell-based. To be noted: treated vs untreated cells.
Where [2] appears, read: sulfite vs vehicle treated cells.

The structures appear in SMILES notation.

Regarding `O=S([O-])[O-].[Na+].[Na+]` [sulfite, sodium sulfite], the oxPPP shunting entry in the assay with oxidative PPP is listed as “increase”. Besides, the “ferroptosis (cell death) in combination with RSL3” value in assay [1] (RSL3 0.2-2.0 μm plus sulfite 0.5-2 mM depending on cell line) is on record as “induced statistically significant ferroptosis”. In addition, in assay [1] (sulfite alone, 0.5-2 mM depending on cell line), the “induction of ferroptosis (cell death)” value is on record as “did not show induction of ferroptosis”. In the assay with cells (sulfite treated samples), the “Levels of S-sulfocysteine” value was “increase”. Besides, in the assay on cells (setting [2]), the “level of 6-phospho-D-Gluconate” value is “increase”, the “level of D-Glyceraldehyde 3-phosphate” value is “increase”, the “level of D-sedoheptulose-1/7 phosphate” value was “increase” and the “level of ribose phosphate” value is “increase”. Further, in the assay with SHMT2, the SHMT2 protein level result is “No changes”. Also, in the assay on NADP+/NADPH, the “NADP+/NADPH ratio” value is on record as “increase”.
